# Reference: ChEMBL document CHEMBL1201862, “PubChem BioAssay data set” (2004)
# Activity calls are given as the source filed them.
# Assays:
# Kallikrein-7 = Kallikrein-7 (Homo sapiens, UniProt P49862); assay: Fluorescence Intensity-based biochemical primary high throughput dose response assay to identify activators of kallikrein-7 (K7) zymogen.
# [1] = target: Oxysterols receptor LXR-beta (Homo sapiens, UniProt P55055); type: functional, cell-based;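 also: agonist activity at LXR measured by a cell-based luminescence readout across a dose range, run as a counterscreen for daf-12 agonists; HEK293 cells with Gal4-LXR fusion and GAL4-driven luciferase reporter; potency for activation of Gal4-LXR reporter so compounds are agonists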
# Chain of Oxysterols receptor LXR-beta (P55055 whole entry, the tested form may be a part): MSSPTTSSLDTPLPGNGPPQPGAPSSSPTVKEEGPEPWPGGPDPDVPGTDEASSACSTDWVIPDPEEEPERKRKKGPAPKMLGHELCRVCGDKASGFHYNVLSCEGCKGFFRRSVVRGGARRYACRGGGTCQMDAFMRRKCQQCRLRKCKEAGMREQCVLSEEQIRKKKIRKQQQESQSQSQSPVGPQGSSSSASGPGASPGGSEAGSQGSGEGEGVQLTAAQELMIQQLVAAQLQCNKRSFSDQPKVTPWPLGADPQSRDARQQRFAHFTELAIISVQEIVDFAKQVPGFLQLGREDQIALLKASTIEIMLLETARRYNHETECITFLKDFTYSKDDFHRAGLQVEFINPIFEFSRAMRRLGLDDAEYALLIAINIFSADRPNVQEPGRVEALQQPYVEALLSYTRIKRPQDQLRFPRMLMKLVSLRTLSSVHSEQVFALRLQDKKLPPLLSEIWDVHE
# [2] = NIH-3T3 fibroblast cytotoxicity, dose response, cytotoxicity control, cell-based, fluorescence, Alamar Blue, secondary assay (AID 2327); type: functional;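 also: NIH-3T3 mouse fibroblasts cultured with fluconazole at 8 µg/mL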
# [3] = fluconazole-exposed Candida albicans growth modulators – fluorescence, retest, confirmation (AID 2467); type: functional, cell-based
# NS3 = NS3 (Hepatitis C virus, UniProt A3EZJ3); assay: PubChem AID 2173; design: species or system Hepacivirus hominis
# Chain of NS3 (A3EZJ3 whole entry): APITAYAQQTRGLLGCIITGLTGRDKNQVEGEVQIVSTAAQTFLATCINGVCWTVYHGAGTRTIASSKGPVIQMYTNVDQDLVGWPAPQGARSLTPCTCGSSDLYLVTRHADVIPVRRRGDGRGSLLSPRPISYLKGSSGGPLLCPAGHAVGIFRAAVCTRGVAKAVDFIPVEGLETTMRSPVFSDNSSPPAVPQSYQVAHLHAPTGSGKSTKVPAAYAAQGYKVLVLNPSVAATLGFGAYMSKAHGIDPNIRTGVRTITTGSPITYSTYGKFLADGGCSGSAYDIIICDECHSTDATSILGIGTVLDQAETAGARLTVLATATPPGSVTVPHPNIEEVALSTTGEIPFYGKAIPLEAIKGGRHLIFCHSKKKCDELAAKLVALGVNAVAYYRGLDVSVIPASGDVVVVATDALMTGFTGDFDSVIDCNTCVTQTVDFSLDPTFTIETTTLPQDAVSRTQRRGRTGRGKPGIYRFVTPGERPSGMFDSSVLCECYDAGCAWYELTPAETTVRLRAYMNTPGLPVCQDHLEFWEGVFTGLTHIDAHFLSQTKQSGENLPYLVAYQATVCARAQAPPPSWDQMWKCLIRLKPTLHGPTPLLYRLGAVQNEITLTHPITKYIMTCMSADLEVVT
# Vero [4] = assay: cells; type: functional, cell-based; conditions: Chlorocebus sabaeus
# Vero [5] = assay: cells; type: functional; conditions: Chlorocebus sabaeus
# [6] = HGIII-sPLA2 enzyme inhibition potency – biochemical, QFRET, IC50, dose response (AID 743457);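 also: green fluorescence rise as the enzyme cleaves BODIPY PC-A2 in liposomes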
# [7] = A2780 cell killing – plate reader, dry powder samples, cytotoxicity control, dose response (AID 743046); type: functional, cell-based
# [8] = reduced cellular PGC1a acetyl-lysine signal – cell-based, cherry-picked samples, dose response (AID 720514); type: functional;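 also: potency may reflect raised or lowered acetylation signal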
# [9] = OVCAR-3 cell viability loss – plate reader, dry powder samples, PAX8 inhibitor project, dose response (AID 743044); type: functional, cell-based
# [10] = IGROV1 cell killing – plate reader, dry powder samples, PAX8 inhibitor project, dose response (AID 743043); type: functional, cell-based; conditions: IGROV-1
# [11] = OVCAR8 cell viability loss – plate reader, dry powder samples, PAX8 project, dose response (AID 743197); type: functional, cell-based; conditions: OVCAR-8
# Paired box protein Pax-8 = Paired box protein Pax-8 (Homo sapiens, UniProt Q06710); assay: PAX8 transcriptional activity inhibition in RMG-I – RMG-I cells, luciferase, cherry-pick, dose response (AID 687027); type: functional, cell-based;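 also: luciferase reporter driven by Pax8 target thyroperoxidase promoter measured by SteadyGlo luminescence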
# Chain of Paired box protein Pax-8 (Q06710 whole entry): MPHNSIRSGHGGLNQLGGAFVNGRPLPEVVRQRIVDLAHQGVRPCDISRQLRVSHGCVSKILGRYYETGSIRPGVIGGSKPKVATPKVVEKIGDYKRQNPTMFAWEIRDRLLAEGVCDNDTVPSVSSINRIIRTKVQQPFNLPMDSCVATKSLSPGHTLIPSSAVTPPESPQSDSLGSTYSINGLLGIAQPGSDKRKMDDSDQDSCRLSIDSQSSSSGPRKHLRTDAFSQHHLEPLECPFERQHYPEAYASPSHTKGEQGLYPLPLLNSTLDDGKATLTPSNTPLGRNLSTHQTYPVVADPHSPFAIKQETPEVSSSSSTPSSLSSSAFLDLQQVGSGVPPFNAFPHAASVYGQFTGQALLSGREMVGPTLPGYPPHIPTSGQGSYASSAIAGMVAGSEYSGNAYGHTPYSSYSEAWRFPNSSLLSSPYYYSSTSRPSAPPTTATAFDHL
# [12] = toxicity toward immortalized ovarian surface epithelium – cell-based, plate reader, dry powder samples, cytotoxicity control for PAX8 inhibitor project, dose response (AID 743045); type: functional
# [13] = target: COUP transcription factor 2 (Homo sapiens, UniProt P24468); assay: Luminescence-based cell-based high throughput dose response assay to identify inhibitors of COUP-TFII (NR2F2).; type: functional;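 also: HEK293 cells transiently cotransfected with COUP-TFII expression vector and reporter; luciferase reporter luminescence driven by COUP-TFII from the pX2-168 reporter plasmid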
# Chain of COUP transcription factor 2 (P24468 whole entry): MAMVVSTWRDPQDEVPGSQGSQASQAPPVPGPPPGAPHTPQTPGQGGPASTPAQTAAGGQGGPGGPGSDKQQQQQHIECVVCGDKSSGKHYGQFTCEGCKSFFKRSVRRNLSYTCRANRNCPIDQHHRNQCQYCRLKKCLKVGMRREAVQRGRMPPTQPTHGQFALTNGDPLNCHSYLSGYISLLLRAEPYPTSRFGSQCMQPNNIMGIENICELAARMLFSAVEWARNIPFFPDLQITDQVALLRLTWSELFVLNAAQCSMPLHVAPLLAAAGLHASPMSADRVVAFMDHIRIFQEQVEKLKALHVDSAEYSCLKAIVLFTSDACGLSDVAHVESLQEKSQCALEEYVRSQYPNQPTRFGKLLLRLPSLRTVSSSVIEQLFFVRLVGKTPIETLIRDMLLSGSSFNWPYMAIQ
# [14] = IC50 of insulin release inhibition, rat insulinoma INS-1E line, 5 mM glucose, cell-based (AID 1117331); type: functional
# [15] = glucagon-like peptide-1 release potency in STC-1, concentration-response, half-maximal inhibitory concentration in the STC-1 line (AID 1117345); type: functional, cell-based
# [16] = Potency on glucagon-like peptide 1 release, dose-response in NCI-H716 cell line, half maximal inhibitory concentration (AID 1117344); type: functional, cell-based
# Beta-galactosidase = Beta-galactosidase (Escherichia coli, UniProt Q8VNN2); assay: Dose response counterscreen for EBI2 assay utilizing the enzyme, b-galactosidase.; type: functional
# Chain of Beta-galactosidase (Q8VNN2 whole entry): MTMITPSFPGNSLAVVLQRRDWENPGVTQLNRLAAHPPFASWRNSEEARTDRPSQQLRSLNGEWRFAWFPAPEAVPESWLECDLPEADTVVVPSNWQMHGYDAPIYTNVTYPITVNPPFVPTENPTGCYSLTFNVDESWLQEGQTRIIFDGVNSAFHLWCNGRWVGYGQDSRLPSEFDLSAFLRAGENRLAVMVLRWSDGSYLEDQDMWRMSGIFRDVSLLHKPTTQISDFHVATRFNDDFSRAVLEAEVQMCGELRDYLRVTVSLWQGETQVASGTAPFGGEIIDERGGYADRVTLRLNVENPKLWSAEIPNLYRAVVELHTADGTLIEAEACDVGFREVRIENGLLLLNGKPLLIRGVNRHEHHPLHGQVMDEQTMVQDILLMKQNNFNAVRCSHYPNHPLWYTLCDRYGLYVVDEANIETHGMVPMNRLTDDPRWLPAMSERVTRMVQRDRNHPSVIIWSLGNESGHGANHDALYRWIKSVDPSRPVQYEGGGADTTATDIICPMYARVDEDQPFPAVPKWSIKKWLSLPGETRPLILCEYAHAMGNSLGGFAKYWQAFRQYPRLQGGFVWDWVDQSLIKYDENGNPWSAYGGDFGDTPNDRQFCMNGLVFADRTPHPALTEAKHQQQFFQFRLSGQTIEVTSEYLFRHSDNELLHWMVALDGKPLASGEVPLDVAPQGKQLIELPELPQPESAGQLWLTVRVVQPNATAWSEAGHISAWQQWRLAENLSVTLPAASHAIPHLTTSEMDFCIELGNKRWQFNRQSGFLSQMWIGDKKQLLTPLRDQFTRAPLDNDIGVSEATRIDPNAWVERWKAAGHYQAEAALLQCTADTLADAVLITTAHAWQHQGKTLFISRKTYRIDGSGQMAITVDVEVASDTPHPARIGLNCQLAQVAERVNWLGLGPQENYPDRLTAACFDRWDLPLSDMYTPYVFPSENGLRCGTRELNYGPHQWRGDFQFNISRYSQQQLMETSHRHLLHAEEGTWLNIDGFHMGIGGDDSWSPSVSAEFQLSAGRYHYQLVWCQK
# [17] = general cell-killing toxicity readout – plate reader, dry powder samples, cytotoxicity control for PAX8 inhibitor project, dose response (AID 743021); type: functional, cell-based
# HEK293 = assay: viability loss in HEK293T cells – cell-based, ATP luminescence, cherry-pick samples, cytotoxicity control, dose response (AID 687005); type: functional; conditions: Homo sapiens;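 also: cells exposed to compound for 48 hours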
# [18] = HEK293 Cytotoxicity Assay Measured in Cell-Based System Using Plate Reader - 7071-01_Inhibitor_Dose_CherryPick_Activity_Set2.; type: functional
# [19] = target: T1, Lysine-specific demethylase 4C (Homo sapiens, UniProt Q9H3R0); assay: inhibition of JMJD2C H3K9me3 demethylation – biochemical, DELFIA europium, cherry-picked samples, dose response (AID 488835); type: functional
# T1 sequence (Q9H3R0 whole entry): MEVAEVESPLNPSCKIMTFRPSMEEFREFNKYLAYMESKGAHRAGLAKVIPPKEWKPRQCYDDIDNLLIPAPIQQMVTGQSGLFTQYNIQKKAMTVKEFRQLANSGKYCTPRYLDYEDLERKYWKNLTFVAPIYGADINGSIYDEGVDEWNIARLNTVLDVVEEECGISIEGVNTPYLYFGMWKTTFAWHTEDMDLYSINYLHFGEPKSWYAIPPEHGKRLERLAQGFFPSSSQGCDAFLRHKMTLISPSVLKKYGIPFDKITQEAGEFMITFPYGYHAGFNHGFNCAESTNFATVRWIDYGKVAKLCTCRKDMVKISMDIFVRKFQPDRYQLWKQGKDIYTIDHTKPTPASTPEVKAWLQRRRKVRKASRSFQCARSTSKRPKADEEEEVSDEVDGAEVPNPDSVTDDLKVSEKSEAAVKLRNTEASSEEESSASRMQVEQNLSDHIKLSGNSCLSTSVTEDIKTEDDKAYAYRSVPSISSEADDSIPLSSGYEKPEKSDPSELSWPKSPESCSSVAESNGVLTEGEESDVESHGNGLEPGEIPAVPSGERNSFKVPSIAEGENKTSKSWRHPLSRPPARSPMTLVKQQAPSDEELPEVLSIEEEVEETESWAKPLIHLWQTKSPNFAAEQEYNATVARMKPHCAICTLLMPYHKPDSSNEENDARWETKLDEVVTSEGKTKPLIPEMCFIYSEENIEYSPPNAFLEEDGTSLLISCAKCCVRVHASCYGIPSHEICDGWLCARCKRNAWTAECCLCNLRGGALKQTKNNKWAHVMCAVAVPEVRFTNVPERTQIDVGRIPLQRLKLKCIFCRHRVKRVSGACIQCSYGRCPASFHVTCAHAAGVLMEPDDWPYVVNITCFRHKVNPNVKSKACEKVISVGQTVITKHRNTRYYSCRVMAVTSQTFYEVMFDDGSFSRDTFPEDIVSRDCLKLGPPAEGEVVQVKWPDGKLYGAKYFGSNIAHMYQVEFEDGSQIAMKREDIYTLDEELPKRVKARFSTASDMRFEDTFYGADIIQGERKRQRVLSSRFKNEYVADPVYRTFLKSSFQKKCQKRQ
# [20] = target: T2, Apoptotic protease-activating factor 1 (Homo sapiens, UniProt O14727); type: functional
# T2 sequence (O14727 whole entry): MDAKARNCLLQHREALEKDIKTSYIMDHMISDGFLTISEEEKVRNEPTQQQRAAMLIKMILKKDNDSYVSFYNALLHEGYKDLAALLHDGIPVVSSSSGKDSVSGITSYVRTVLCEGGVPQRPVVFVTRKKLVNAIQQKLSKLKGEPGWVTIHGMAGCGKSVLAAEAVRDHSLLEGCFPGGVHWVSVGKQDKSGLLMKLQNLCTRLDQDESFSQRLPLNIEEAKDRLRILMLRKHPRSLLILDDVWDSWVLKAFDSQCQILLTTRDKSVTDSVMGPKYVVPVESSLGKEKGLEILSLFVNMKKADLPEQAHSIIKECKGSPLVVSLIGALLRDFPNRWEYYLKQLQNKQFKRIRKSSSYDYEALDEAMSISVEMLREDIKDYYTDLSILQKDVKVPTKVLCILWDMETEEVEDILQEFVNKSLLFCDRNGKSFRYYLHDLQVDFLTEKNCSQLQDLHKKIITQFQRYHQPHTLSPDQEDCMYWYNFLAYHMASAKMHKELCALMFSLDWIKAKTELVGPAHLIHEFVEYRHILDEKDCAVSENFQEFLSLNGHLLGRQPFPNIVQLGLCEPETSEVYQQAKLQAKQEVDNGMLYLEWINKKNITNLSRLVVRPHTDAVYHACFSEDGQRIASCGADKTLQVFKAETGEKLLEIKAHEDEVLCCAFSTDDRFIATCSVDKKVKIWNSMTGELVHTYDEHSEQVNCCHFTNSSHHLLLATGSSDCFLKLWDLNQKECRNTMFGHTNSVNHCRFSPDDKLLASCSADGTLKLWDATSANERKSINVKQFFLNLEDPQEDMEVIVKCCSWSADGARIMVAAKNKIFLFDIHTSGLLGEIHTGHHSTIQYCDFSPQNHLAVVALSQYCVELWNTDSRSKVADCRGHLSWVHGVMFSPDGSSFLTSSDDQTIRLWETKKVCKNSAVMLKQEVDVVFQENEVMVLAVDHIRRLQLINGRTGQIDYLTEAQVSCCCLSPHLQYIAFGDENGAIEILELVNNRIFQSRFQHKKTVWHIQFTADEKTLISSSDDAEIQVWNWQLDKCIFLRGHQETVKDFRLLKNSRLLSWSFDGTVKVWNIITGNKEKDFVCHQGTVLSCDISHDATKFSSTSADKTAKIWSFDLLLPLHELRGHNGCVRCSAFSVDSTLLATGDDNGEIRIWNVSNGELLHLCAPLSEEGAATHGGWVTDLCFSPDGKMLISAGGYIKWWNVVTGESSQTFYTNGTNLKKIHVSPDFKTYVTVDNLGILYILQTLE
# [21] = target: T3, Probable nicotinate-nucleotide adenylyltransferase (Staphylococcus aureus (strain N315), UniProt P65502); type: functional, Staphylococcus aureus subsp. aureus N315;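 as to IC50 Mean: confirmatory dose-response retesting of NadD inhibitor hits first found in an ultra-high-throughput screen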
# T3 sequence (P65502 whole entry): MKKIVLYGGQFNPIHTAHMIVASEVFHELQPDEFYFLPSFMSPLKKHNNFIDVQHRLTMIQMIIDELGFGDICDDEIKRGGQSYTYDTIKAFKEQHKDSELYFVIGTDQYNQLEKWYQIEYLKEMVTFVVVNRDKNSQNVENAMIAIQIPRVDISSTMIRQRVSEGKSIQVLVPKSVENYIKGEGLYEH
# [22] = target: T3, Probable nicotinate-nucleotide adenylyltransferase; type: functional, Staphylococcus aureus subsp. aureus N315; conditions: read-out: IC50_Mean
# [23] = target: T4, Sentrin-specific protease 8 (Homo sapiens, UniProt Q96LD8); type: functional
# T4 sequence (Q96LD8 whole entry): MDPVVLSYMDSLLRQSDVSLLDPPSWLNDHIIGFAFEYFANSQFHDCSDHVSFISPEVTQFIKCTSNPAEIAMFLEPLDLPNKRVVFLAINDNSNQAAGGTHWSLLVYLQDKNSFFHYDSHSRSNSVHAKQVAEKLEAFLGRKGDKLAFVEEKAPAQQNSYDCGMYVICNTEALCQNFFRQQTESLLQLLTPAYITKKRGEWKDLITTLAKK
# [24] = target: T4, Sentrin-specific protease 8; type: functional; remark: listed apart in the source
# INS1 = assay: INS-1E survival protection against cytokine death – cell-based, luminescence, retest, dose response (AID 449756); type: functional; conditions: Rattus norvegicus;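 also: cell death triggered by IL-1 beta plus TNF-alpha plus IFN-gamma mixture; protective hits raise ATP signal compared with cytokine alone wells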
# Vero [25] = assay: viability of Vero cells under compound – cytotoxicity control for flavivirus capping enzyme inhibitors (AID 588742); type: functional; conditions: Chlorocebus sabaeus
# [26] = IC50 of Artemis nuclease activity blockers – biochemical, fluorescence intensity, dose response (AID 720701); type: functional;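 also: Artemis endonuclease enzyme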
# Chain of Kallikrein-7 (P49862 whole entry, the tested form may be a part): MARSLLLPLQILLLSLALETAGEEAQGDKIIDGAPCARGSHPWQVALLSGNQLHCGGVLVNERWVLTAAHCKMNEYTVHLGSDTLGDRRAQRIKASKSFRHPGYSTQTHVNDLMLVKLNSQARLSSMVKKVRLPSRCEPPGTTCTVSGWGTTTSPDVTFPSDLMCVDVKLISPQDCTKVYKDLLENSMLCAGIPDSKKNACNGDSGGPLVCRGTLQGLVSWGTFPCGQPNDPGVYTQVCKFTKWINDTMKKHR
compound,measurement,setting,value
COc1cc(/C=N/NC(=O)c2c(C)nc3ccc(Cl)cn23)cc(OC)c1OC,EC50,Kallikrein-7,29 µM (inactive)
OC(c1ccccc1)c1nc(-c2cnc3ccccc3c2)cs1 (configuration not stated),EC50,[1],> 67.6 µM (inactive)
CCCCOc1ccccc1C(=O)NNC(=S)NC(=O)c1ccccc1[N+](=O)[O-],EC50,[2],> 150 µM (inactive)
same,EC50,[3],> 38 µM (not active)
same,IC50,NS3,12.2 µM (not active)
same,IC50,Vero [4],> 12.5 µM (active)
same,CC50,Vero [5],15.8 µM (active)
same,IC50,[6],20.8 µM (inactive)
Fc1cccc(CN2C[C@@H]3N[C@H](C2)[C@@H]3c2ccc(-c3ccccc3)cc2)c1,AC50,[7],15.1 µM (active)
same,AC50,[8],7.52 µM (active)
same,AC50,[9],31 µM (active)
same,AC50,[10],27.7 µM (active)
same,AC50,[11],39.9 µM (active)
O=C(CSCc1ccccc1)NNC(=S)Nc1cccc(Cl)c1Cl,IC50,[6],> 122 µM (inactive)
CC(C)CC#Cc1ccc2c(c1)O[C@@H](CN(C)Cc1ccncc1)[C@H](C)CN([C@H](C)CO)S2(=O)=O,AC50,Paired box protein Pax-8,4.41 µM (active)
same,AC50,[12],48.9 µM (active)
same,AC50,[9],40.7 µM (active)
same,AC50,[11],32.6 µM (active)
CC/N=c1\scc(-c2ccc3c(c2)NC(=O)CO3)n1N=C1CCCC1,EC50,[2],> 160 µM (inactive)
same,EC50,[3],2.31 µM (active)
same,IC50,[13],8.75 µM (active)
Cc1c(N)cccc1C(F)(F)F,IC50,[14],> 33.3 µM (inactive)
same,IC50,[15],> 40 µM (inactive)
same,IC50,[16],> 40 µM (inactive)
COc1ccc(NC(=O)C2Cc3c(-c4ccc5c(c4)OCO5)ccnc3O2)cc1OC (configuration not stated),IC50,[13],8.73 µM (active)
COc1ccc(OCC(=O)N2CCN(C/C=C/c3ccccc3)CC2)cc1,IC50,Beta-galactosidase,> 80 µM (inactive)
CSc1ccc(C2NC(=O)c3ccccc3N2)cc1 (configuration not stated),EC50,Kallikrein-7,> 69.5 µM (inactive)
O=C(Nc1ccc(C(F)(F)F)cc1)N1C[C@@H]2N[C@H](C1)[C@@H]2c1ccc(-c2ccccc2)cc1,AC50,Paired box protein Pax-8,8.62 µM (active)
same,AC50,[8],9.06 µM (active)
same,AC50,[17],33.8 µM (active)
Cc1ccc(S(=O)(=O)N(C)C[C@@H]2Oc3ccc(NS(=O)(=O)c4ccc(Cl)cc4)cc3CC(=O)N([C@@H](C)CO)C[C@@H]2C)cc1,AC50,HEK293,28 µM (active)
same,AC50,[18],28 µM (active)
Cc1[nH][nH]c(=O)c1C(c1c(C)[nH][nH]c1=O)c1cn(Cc2cccc3ccccc23)c2ccccc12,AC50,[19],11.4 µM (active)
same,IC50,[20],19.3 µM (active)
same,IC50,[21],6.89 µM (active)
same,IC50,[22],14.7 µM (active)
same,IC50,[23],3.36 µM (active)
same,IC50,[24],5.32 µM (active)
Cc1cc(OCC(=O)N(C)Cc2ccccc2)ccc1Cl,AC50,INS1,> 260 µM (inactive)
same,IC50,Beta-galactosidase,> 80 µM (inactive)
Cc1n[nH]c(O)c1C(c1c(C)n[nH]c1O)c1cn(Cc2cccc3ccccc23)c2ccccc12,CC50,Vero [25],> 40 µM (active)
same,IC50,[26],12.5 µM (active)
